According to patent publication US10105365B2, “Solid antiviral dosage forms” (AbbVie Inc., priority 2014, dated 2018):

What was measured:
[1] = Sink Conditions dissolution testing of Formulation C5-12; assay type: physicochemical; conditions: N = 6
Procedure: The release profiles of Formulation C5-12 of Example 1 were evaluated in a Sink Conditions dissolution study. The study was conducted in 900 mL of dissolution medium using a standard USP dissolution Apparatus 2 (paddle) operating at 100 RPM at 37±0.5° C. The dissolution medium was a 0.05 M sodium phosphate buffer pH 6.8 with 15 mM cTAB as a surfactant.

[2] = Human pharmacokinetic study, Example 4 Arm II (single dose, crossover); assay type: in vivo; conditions: both sexes, human, oral, Example 4 Arm II, single dose, non-fasting, N = 13; for half-life / AUC(0-t) / AUC(0-inf) / Tmax: blood; for AUC(0-t): read-out: AUCt, geometric mean; for AUC(0-inf): read-out: AUC∞, geometric mean; for Tmax: read-out: Tmax; for concentration at 24 h / Cmax: in vivo; for concentration at 24 h: read-out: C24, geometric mean; for Cmax: read-out: Cmax, geometric mean
Outline: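 Healthy adult men and women (N=30 across Arms I and II) randomised to crossover regimen sequences; single oral dose with ~240 mL water ~30 min after a standardised breakfast; one regimen given an evening dose after a snack.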

[3] = Human pharmacokinetic study, Example 4 Arm III (14-day multiple dose, steady state); assay type: in vivo
[4] = Human pharmacokinetic study, Example 5 Arm I (single dose, replicated crossover); assay type: in vivo; conditions: both sexes, human, oral, single dose, non-fasting; for half-life / AUC(0-t) / AUC(0-inf) / Tmax: blood; for Cmax: in vivo
Outline: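 Single-dose, randomized, four-period, two-sequence replicated crossover in 88 healthy adults, periods separated by at least 10 days. Oral dosing in the morning with about 240 mL water, about 30 min after starting a standardized breakfast. Serial blood samples collected over 72 h after each dose.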

[5] = Human pharmacokinetic study, Example 5 Arm II (multiple dose, crossover); assay type: in vivo; conditions: Example 5 Arm II; for β, geometric mean / half-life / AUC / concentration at 24 h / Cmax / Tmax: multiple dose 14 days, non-fasting, N = 63; for half-life / AUC / concentration at 24 h / Cmax / Tmax: both sexes, human, blood, oral; for AUC: read-out: AUC24, geometric mean; for concentration at 24 h: read-out: C24, geometric mean; for Cmax: read-out: Cmax, geometric mean; for Tmax: read-out: Tmax, first value (geometric mean)
Outline: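 Multiple-dose two-period randomized crossover in 66 healthy adults: oral dosing for 14 days per period, ≥10-day separation, taken with ~240 mL water about 30 min after a standardized breakfast. Serial blood samples for pharmacokinetics were collected 72 hours after dosing in each period.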

[6] = Solubility (general statement); assay type: physicochemical
[7] = Permeability (general statement); assay type: in vitro ADME; conditions: free acid of Compound 4; gastrointestinal tract
[8] = 4 hours, pH 6.8 buffer, 15 mM cTAB
[9] = 6 hours, pH 6.8 buffer, 15 mM cTAB
[10] = 8 hours, pH 6.8 buffer, 15 mM cTAB
[11] = 12 hours, pH 6.8 buffer, 15 mM cTAB
[12] = 16 hours, pH 6.8 buffer, 15 mM cTAB
[13] = 24 hours, pH 6.8 buffer, 15 mM cTAB
[14] = 30 hours, pH 6.8 buffer, 15 mM cTAB
[15] = 3 Formulation C5-12 tablets, Regimen E (C5-12): three Formulation C5-12 tablets in the morning
[16] = Regimen A (reference regimen): two Triple Tablets + one Single Tablet morning, one Single Tablet evening
[17] = Formulation C5-12, Day 14 versus Day 1
[18] = human, in vivo, oral, 3 Formulation C5-12 tablets daily, three Formulation C5-12 tablets daily for 14 days, non-fasting, Day 14, N = 14
[19] = three Formulation C5-12 tablets daily for 14 days, non-fasting, Day 14, N = 14
[20] = Regimen B (reference regimen): two Triple Tablets + one Single Tablet morning, one Single Tablet evening
[21] = 3 film-coated Formulation C5-12 tablets daily, Regimen A (C5-12): three film-coated Formulation C5-12 tablets daily

COc1c(-c2ccc3cc(NS(C)(=O)=O)ccc3c2)cc(-n2ccc(=O)[nH]c2=O)cc1C(C)(C)C [Compound 4, N-(6-(3-tert-butyl-5-(2,4-dioxo-3,4-dihydropyrimidin-1(2H)-yl)-2-methoxyphenyl)naphthalen-2-yl)methanesulfonamide]
% Released ([1]; 1 hour, 900 mL 0.05 M sodium phosphate buffer pH 6.8, 15 mM cTAB, USP Apparatus 2, 100 RPM, 37 °C): 1%
mg Released ([1]; 1 hour, pH 6.8 buffer, 15 mM cTAB): 2.3 mg
% Released [1, 8]: 11%
mg Released [1, 8]: 25.7 mg
% Released [1, 9]: 18%
mg Released [1, 9]: 42.0 mg
% Released [1, 10]: 25%
mg Released [1, 10]: 58.3 mg
% Released [1, 11]: 39%
mg Released [1, 11]: 91.0 mg
% Released [1, 12]: 51%
mg Released [1, 12]: 119.0 mg
% Released [1, 13]: 70%
mg Released [1, 13]: 163.3 mg
% Released [1, 14]: 81%
mg Released [1, 14]: 189.0 mg
half-life [2, 15]: 6.4 h
AUC(0-t) [2, 15]: 18400 ng·h/mL
AUC(0-inf) [2, 15]: 18600 ng·h/mL
Tmax [2, 15]: 9.7 h
half-life [2, 16]: 5.5 h
AUC(0-t) [2, 16]: 18200 ng·h/mL
AUC(0-inf) [2, 16]: 18400 ng·h/mL
Tmax [2, 16]: 3.1 h
concentration at 24 h [2, 15]: 290 ng/mL
Cmax [2, 15]: 1350 ng/mL
concentration at 24 h [2, 16]: 361 ng/mL
Cmax [2, 16]: 1240 ng/mL
AUC24, RATIO [3, 17]: 0.88
C24, RATIO [3, 17]: 0.63
Cmax, RATIO [3, 17]: 0.95
Tmax ([3]; human, in vivo, oral, 3 Formulation C5-12 tablets daily, three Formulation C5-12 tablets daily for 14 days, non-fasting, Day 1, N = 14): 9 h
AUC ([3]; human, in vivo, oral, 3 Formulation C5-12 tablets daily, three Formulation C5-12 tablets daily for 14 days, non-fasting, Day 1, N = 14, read-out: AUC24, geometric mean): 13600 ng·h/mL
concentration at 24 h ([3]; human, in vivo, oral, 3 Formulation C5-12 tablets daily, three Formulation C5-12 tablets daily for 14 days, non-fasting, Day 1, N = 14, read-out: C24, geometric mean): 272 ng/mL
Cmax ([3]; human, in vivo, oral, 3 Formulation C5-12 tablets daily, three Formulation C5-12 tablets daily for 14 days, non-fasting, Day 1, N = 14, read-out: Cmax, geometric mean): 1320 ng/mL
Tmax [3, 18]: 9.4 h
half-life [3, 18]: 5.9 h
AUC ([3]; human, in vivo, oral, 3 Formulation C5-12 tablets daily, three Formulation C5-12 tablets daily for 14 days, non-fasting, Day 14, N = 14, read-out: AUC24, geometric mean): 12000 ng·h/mL
concentration at 24 h ([3]; human, in vivo, oral, 3 Formulation C5-12 tablets daily, three Formulation C5-12 tablets daily for 14 days, non-fasting, Day 14, N = 14, read-out: C24, geometric mean): 172 ng/mL
Cmax ([3]; human, in vivo, oral, 3 Formulation C5-12 tablets daily, three Formulation C5-12 tablets daily for 14 days, non-fasting, Day 14, N = 14, read-out: Cmax, geometric mean): 1250 ng/mL
C24, arithmetic mean, % CV [3, 19]: (210,61) ng/mL
β [3, 19]: 0.117 h⁻¹
half-life ([4]; 3 film-coated Formulation C5-12 tablets, Regimen A (C5-12): three film-coated Formulation C5-12 tablets, N = 172): 6.91 h
AUC(0-t) ([4]; 3 film-coated Formulation C5-12 tablets, Regimen A (C5-12): three film-coated Formulation C5-12 tablets, N = 172, read-out: AUCt, geometric mean): 12700 ng·h/mL
AUC(0-inf) ([4]; 3 film-coated Formulation C5-12 tablets, Regimen A (C5-12): three film-coated Formulation C5-12 tablets, N = 172, read-out: AUC∞, geometric mean): 12900 ng·h/mL
Tmax ([4]; 3 film-coated Formulation C5-12 tablets, Regimen A (C5-12): three film-coated Formulation C5-12 tablets, N = 172, read-out: Tmax, first value (geometric mean)): 8 h
half-life ([4]; Regimen B (reference regimen): two Triple Tablets + one Single Tablet morning, one Single Tablet evening, N = 171): 5.8 h
AUC(0-t) ([4]; Regimen B (reference regimen): two Triple Tablets + one Single Tablet morning, one Single Tablet evening, N = 171, read-out: AUCt, geometric mean): 14800 ng·h/mL
AUC(0-inf) ([4]; Regimen B (reference regimen): two Triple Tablets + one Single Tablet morning, one Single Tablet evening, N = 171, read-out: AUC∞, geometric mean): 14900 ng·h/mL
Tmax ([4]; Regimen B (reference regimen): two Triple Tablets + one Single Tablet morning, one Single Tablet evening, N = 171, read-out: Tmax, first value (geometric mean)): 4 h
Cmax ([4]; 3 film-coated Formulation C5-12 tablets, Regimen A (C5-12): three film-coated Formulation C5-12 tablets, N = 172, read-out: Cmax, geometric mean): 1060 ng/mL
Cmax ([4]; Regimen B (reference regimen): two Triple Tablets + one Single Tablet morning, one Single Tablet evening, N = 171, read-out: Cmax, geometric mean): 1030 ng/mL
β, geometric mean ([5]; Regimen A (C5-12): three film-coated Formulation C5-12 tablets daily): 0.104 h⁻¹
β, geometric mean [5, 20]: 0.122 h⁻¹
Exposures (Cmax,ss and AUC24,ss) versus the reference regimen ([5]; Formulation C5-12, point estimate and 90% confidence interval for the GMR within 0.80-1.25): bioequivalent
C24,ss lower than C24,ss (Ctrough) for the reference regimen ([5]; Formulation C5-12 relative to the reference regimen): 29%
half-life [5, 21]: 6.2 h
AUC [5, 21]: 8810 ng·h/mL
concentration at 24 h [5, 21]: 116 ng/mL
Cmax [5, 21]: 799 ng/mL
Tmax [5, 21]: 8 h
half-life [5, 20]: 5.5 h
AUC [5, 20]: 9770 ng·h/mL
concentration at 24 h [5, 20]: 162 ng/mL
Cmax [5, 20]: 879 ng/mL
Tmax [5, 20]: 4 h
Solubility ([6]; aqueous): low solubility
Solubility in the gastrointestinal tract ([6]; free acid of Compound 4): poor solubility
Permeability [7]: good permeability
